Assay results reported in ChEMBL document CHEMBL1201862, “PubChem BioAssay data set” (2004).
Active and inactive are the calls of the source.

How the values were obtained:
[1] = target: Glyceraldehyde-3-phosphate dehydrogenase (Homo sapiens, UniProt P04406)
[2] = target: T1, Alkaline phosphatase, tissue-nonspecific isozyme (Homo sapiens, UniProt P05186); experiment: potency against alkaline phosphatase TNAP – biochemical, luminescent, dose response, SAR follow-up (AID 1056)
T1 sequence (P05186 whole entry): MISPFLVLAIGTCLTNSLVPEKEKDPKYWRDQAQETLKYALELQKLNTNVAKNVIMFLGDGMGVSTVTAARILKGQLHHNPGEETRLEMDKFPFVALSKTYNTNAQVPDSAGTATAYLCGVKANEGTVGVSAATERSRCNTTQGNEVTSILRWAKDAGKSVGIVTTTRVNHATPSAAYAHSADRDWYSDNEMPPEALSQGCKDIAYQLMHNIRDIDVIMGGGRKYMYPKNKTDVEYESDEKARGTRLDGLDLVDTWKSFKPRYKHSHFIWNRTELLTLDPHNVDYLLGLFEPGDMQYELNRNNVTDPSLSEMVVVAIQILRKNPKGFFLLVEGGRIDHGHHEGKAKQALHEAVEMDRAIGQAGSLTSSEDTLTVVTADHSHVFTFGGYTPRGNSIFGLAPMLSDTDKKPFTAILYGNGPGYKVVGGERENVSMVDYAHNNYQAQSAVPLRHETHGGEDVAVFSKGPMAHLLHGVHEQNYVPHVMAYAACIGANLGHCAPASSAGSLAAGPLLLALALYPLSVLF

X-box-binding protein 1 = X-box-binding protein 1 (Homo sapiens, UniProt P17861); type: functional, Cricetulus griseus;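 note: confirmatory dose-response counter-screen serving a CHOP assay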
[3] = target: T2, Neuropeptide Y receptor type 1 (Homo sapiens, UniProt P25929); experiment: Fluorescence-based counterscreen for agonists of NPY-Y2: cell-based high-throughput dose response assay for agonists of NPY-Y1.; type: functional
T2 sequence (P25929 whole entry): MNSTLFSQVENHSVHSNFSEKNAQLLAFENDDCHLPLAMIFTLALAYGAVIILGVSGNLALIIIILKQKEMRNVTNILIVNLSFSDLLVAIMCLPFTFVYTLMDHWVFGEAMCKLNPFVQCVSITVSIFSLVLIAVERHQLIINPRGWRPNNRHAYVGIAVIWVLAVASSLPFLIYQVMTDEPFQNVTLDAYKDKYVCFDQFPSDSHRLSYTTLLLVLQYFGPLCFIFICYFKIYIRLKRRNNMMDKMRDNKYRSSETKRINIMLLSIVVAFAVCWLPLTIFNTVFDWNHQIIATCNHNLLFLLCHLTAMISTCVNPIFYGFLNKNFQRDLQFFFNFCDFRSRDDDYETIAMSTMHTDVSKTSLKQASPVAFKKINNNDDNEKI

[4] = target: T3, Neuropeptide Y receptor type 2 (Homo sapiens, UniProt P49146); experiment: Fluorescence-based cell-based high-throughput dose response assay for agonists of NPY-Y2. [Related pubchem assays: 1703 (Screening assay (CNGC inhibitors).), 1359 (Screening assay (NPY-Y2 potentiators or agonists).), 1304 (Screening assay (NPY-Y1 potentiators or agonists).), 1710 (Screening assay (NPY-Y2 agonists).), 1791 (Summary AID.)]; type: functional
T3 sequence (P49146 whole entry): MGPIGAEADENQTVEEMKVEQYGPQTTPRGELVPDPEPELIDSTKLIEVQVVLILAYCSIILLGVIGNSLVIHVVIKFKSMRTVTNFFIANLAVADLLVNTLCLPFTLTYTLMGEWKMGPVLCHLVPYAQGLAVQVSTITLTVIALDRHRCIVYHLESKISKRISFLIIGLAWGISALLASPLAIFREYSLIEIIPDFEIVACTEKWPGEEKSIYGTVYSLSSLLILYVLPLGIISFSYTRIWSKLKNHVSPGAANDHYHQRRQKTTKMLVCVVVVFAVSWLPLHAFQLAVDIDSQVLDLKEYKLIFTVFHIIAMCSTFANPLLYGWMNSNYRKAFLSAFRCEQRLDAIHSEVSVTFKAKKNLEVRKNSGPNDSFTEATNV

HEK293 = experiment: Fluorescence-based counterscreen for potentiators or agonists of NPY-Y2: cell-based high-throughput dose response assay to identify inhibitors of cyclic nucleotide gated ion channel (CNGC) activity. In this assay, the parental HEK293 cell line transfected with a cyclic-nucleotide gated ion channel (CNGC)-based cAMP sensor is used to measure inhibition of isoproterenol-induced CNGC activity by test compound.; type: functional; conditions: Homo sapiens;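 note: stimulus is 1 µM isoproterenol at EC100 plus PDE inhibitor Ro 20-1724 at 25 µM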
fMet-Leu-Phe receptor = fMet-Leu-Phe receptor (Homo sapiens, UniProt P21462); experiment: formyl peptide receptor binders – dose response (AID 519); type: functional
[5] = HEK-293T cell viability reduction – luminescence, B-cell screen hits, cytotoxicity control for BCR NF-kB inhibitor project, dose response (AID 489021); type: functional, cell-based;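 note: HEK-293T cells carrying an NF-kB luciferase reporter; cells exposed to compound for about 14 hours before viability readout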
T-cell = experiment: loss of vesicle association with mouse CD8+ T cells – mouse 2C CD8+ T cells, flow cytometry, dose response (AID 485284); type: functional
[6] = target: Intestinal-type alkaline phosphatase (Homo sapiens, UniProt P09923); experiment: Dose Response confirmation of uHTS hits from a small molecule inhibitors of human intestinal alkaline phosphatase via a luminescent assay. [Related pubchem assays (depositor defined):AID2544, AID2574]; type: functional
Intestinal-type alkaline phosphatase, sequence (P09923 whole entry): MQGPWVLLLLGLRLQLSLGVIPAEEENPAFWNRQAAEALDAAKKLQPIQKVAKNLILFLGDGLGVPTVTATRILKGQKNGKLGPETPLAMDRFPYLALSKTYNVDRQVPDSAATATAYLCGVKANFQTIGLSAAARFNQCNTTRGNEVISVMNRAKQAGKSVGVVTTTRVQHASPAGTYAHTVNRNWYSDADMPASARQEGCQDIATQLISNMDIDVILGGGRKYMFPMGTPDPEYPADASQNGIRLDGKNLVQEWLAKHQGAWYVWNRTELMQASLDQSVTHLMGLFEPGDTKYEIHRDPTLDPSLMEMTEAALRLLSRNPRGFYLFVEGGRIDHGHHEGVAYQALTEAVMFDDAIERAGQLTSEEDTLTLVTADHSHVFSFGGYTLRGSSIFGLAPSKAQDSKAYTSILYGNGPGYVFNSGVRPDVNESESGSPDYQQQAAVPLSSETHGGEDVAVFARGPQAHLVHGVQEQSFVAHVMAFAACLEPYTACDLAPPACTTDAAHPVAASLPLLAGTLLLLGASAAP

X-box-binding protein 1, sequence (P17861 whole entry): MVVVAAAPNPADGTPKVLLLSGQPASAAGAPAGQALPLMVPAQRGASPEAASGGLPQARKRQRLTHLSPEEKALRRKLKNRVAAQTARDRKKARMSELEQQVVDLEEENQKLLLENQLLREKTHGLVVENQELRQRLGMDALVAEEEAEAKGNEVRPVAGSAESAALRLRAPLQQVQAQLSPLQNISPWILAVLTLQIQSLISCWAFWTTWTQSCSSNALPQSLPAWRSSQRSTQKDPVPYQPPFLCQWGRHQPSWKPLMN
fMet-Leu-Phe receptor, sequence (P21462 whole entry): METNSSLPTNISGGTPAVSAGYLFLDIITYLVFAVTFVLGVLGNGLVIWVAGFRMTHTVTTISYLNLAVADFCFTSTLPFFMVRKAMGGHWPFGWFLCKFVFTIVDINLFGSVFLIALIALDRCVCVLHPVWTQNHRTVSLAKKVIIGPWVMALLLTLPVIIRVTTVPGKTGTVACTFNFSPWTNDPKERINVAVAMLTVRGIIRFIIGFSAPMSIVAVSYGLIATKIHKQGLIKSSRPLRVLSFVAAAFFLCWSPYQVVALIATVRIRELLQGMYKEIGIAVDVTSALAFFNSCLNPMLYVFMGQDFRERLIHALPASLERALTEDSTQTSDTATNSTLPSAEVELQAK
Glyceraldehyde-3-phosphate dehydrogenase, sequence (P04406 whole entry): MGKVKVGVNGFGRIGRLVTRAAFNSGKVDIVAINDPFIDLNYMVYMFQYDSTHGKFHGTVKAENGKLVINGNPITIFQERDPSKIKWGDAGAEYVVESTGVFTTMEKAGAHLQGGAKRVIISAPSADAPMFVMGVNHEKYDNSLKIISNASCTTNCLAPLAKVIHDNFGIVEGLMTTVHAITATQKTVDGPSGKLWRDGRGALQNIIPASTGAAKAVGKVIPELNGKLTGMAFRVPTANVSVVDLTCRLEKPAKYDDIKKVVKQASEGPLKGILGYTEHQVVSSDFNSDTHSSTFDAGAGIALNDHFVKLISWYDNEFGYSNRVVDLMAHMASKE

COc1ccc(Cc2nnc(N3C(=O)[C@H]4CCCC[C@H]4C3=O)[nH]2)cc1
IC50 [1]: > 100 µM (not active) | IC50 [2]: > 100 µM (inactive)

CC1CCCC(NC(=O)COC(=O)/C=C/c2ccc3c(c2)OCO3)C1C (centres undefined)
Absolute IC50 (XBP1) (X-box-binding protein 1): 10 µM

O=[N+]([O-])c1cccc2c(N3CCOCC3)ccnc12
EC50 [3]: > 35.4 µM (not active) | EC50 [4]: > 35.4 µM (not active) | EC50 (HEK293): > 35.4 µM (not active)

CCCc1nc2oc(C(=O)c3ccccc3)c(N)c2c2c1COC(C)(C)C2
Absolute IC50 (XBP1) (X-box-binding protein 1): 10 µM

O=C(O)C1CC=CCC1C(=O)N1CCN(c2nc(-c3ccccc3)c3ccccc3n2)CC1 (centres undefined)
EC50 [3]: 22 µM (not active) | EC50 [4]: > 35.4 µM (not active) | Ki (fMet-Leu-Phe receptor): > 66.7 µM (inactive) | EC50 (HEK293): > 3.94 µM (active)

CC(=C/c1ccco1)/C=N/NC(=O)CSc1nnc(SCc2ccc(C)cc2)s1
IC50 [5]: > 80 µM (inactive)

COc1ccc(C2=Nc3cc(C)ccc3OC2)cc1
EC50 (T-cell): 8.65 µM (active) | IC50 [6]: > 100 µM (inactive)
